pKi: −log10 of the molar value. Where two headings read alike, the source gives them in different places.
Target: T1, HCV NS3/NS4a serine protease (Hepatitis C virus genotype 1b, UniProt P26663)
T1 construct: amino terminus of the NS3 protease domain (amino acids 3-181) with a tetrapeptide linker; made in house; host or cells: E. coli
Assay: Spectrophotometric assay for HCV protease inhibitory activity (chromogenic ester substrates)
Type: biochemical, hepatitis C virus (strain 1b)
Conditions: single chain NS4A21-32-GSGS-NS3 3-181 protease, 30° C., pH 6.5
Method in brief: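 Single-chain NS4A(21-32)-GSGS-NS3(3-181) protease (genotype 1b) from E. coli was used at 1.3 nM in 25 mM MOPS pH 6.5 with 300 mM NaCl, 30 °C and 4% DMSO. Chromogenic ester substrate cleavage was followed as PAP release at 370 nm over 60 min. Ki was derived from vo/vi versus [I] plots assuming competitive inhibition.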

T1 sequence (P26663 1013-1207, looked up, natural form): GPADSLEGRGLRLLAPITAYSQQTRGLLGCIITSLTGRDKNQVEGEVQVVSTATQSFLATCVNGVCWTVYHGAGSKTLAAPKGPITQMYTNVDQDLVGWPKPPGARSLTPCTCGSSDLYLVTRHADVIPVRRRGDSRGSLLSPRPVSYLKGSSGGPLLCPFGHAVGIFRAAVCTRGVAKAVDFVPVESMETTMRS

Row | SMILES | pKi (Ki, Table 3, rating) | further results
1 | CN(C[C@@H](NC(=O)N[C@H](C(=O)N1C[C@H]2[C@@H]([C@H]1C(=O)N[C@@H](CC(F)F)C(=O)NCCCn1cccc1)C2(C)C)C(C)(C)C)C(C)(C)C)S(C)(=O)=O [Example 238] | < 6.30 | 
2 | CCOCCCNC(=O)[C@H](CC(F)F)NC(=O)[C@@H]1[C@@H]2[C@H](CN1C(=O)[C@@H](NC(=O)N[C@H](CN(C)S(C)(=O)=O)C(C)(C)C)C(C)(C)C)C2(C)C [Example 211] | < 6.30 | 
3 | CC(C)[C@H](NC(=O)N[C@H](C(=O)N1C[C@H]2[C@@H]([C@H]1C(=O)N[C@@H](CC(F)F)C(=O)O)C2(C)C)C(C)(C)C)C(=O)OC(C)(C)C [Example 153] |  | pKi (Ki Rating, Table 2): < 6.30
4 | CN(C[C@@H](NC(=O)N[C@H](C(=O)N1C[C@H]2[C@@H]([C@H]1C(=O)N[C@@H](CC(F)F)C(=O)NCCc1ccccc1F)C2(C)C)C(C)(C)C)C(C)(C)C)S(C)(=O)=O [Example 263] | > 7.00 | 
5 | Cc1ccc(CCNC(=O)[C@H](CC(F)F)NC(=O)[C@@H]2[C@@H]3[C@H](CN2C(=O)[C@@H](NC(=O)N[C@H](CN(C)S(C)(=O)=O)C(C)(C)C)C(C)(C)C)C3(C)C)cc1C [Example 267] | > 7.00 | 
6 | CN(C[C@@H](NC(=O)N[C@H](C(=O)N1C[C@H]2[C@@H]([C@H]1C(=O)N[C@@H](CC(F)F)C(=O)N[C@H]1C[C@H]1c1ccccc1)C2(C)C)C(C)(C)C)C(C)(C)C)S(C)(=O)=O [Example 307] | > 7.00 | 
7 | CN(C[C@@H](NC(=O)N[C@H](C(=O)N1C[C@H]2[C@@H]([C@H]1C(=O)N[C@@H](CC(F)F)C(=O)NCCc1ccc(Cl)cc1Cl)C2(C)C)C(C)(C)C)C(C)(C)C)S(C)(=O)=O [Example 283] | > 7.00 | 
8 | CN(C[C@@H](NC(=O)N[C@H](C(=O)N1C[C@H]2[C@@H]([C@H]1C(=O)N[C@@H](CC(F)F)C(=O)NCC(c1ccccc1)c1ccccc1)C2(C)C)C(C)(C)C)C(C)(C)C)S(C)(=O)=O [Example 228] | < 6.30 | 
9 | CN(C[C@@H](NC(=O)N[C@H](C(=O)N1C[C@H]2[C@@H]([C@H]1C(=O)N[C@@H](CC(F)F)C(=O)NCCc1c(Cl)cccc1Cl)C2(C)C)C(C)(C)C)C(C)(C)C)S(C)(=O)=O [Example 284] | > 7.00 | 
10 | CN(C[C@@H](NC(=O)N[C@H](C(=O)N1C[C@H]2[C@@H]([C@H]1C(=O)N[C@@H](CC(F)F)C(=O)NCCCN1CCCC1=O)C2(C)C)C(C)(C)C)C(C)(C)C)S(C)(=O)=O [Example 223] | < 6.30 | 
11 | COc1cc(CCNC(=O)[C@H](CC(F)F)NC(=O)[C@@H]2[C@@H]3[C@H](CN2C(=O)[C@@H](NC(=O)N[C@H](CN(C)S(C)(=O)=O)C(C)(C)C)C(C)(C)C)C3(C)C)cc(OC)c1 [Example 278] | 6.30 to 7.00 | 
12 | CN(C[C@@H](NC(=O)N[C@H](C(=O)N1C[C@H]2[C@@H]([C@H]1C(=O)N[C@@H](CC(F)F)C(=O)NC1CCN(Cc3ccccc3)CC1)C2(C)C)C(C)(C)C)C(C)(C)C)S(C)(=O)=O [Example 243] | < 6.30 | 
13 | CC(C)(C)OC(=O)N[C@H](C(=O)N1C[C@H]2[C@@H]([C@H]1C(=O)NC(CC(F)F)C(=O)NCCc1ccccc1)C2(C)C)C(C)(C)C (some centres unmarked) [Example 151] |  | pKi (Ki Rating, Table 2): < 6.30
14 | CN(C[C@@H](NC(=O)N[C@H](C(=O)N1C[C@H]2[C@@H]([C@H]1C(=O)N[C@@H](CC(F)F)C(=O)NCCc1c(F)cccc1Cl)C2(C)C)C(C)(C)C)C(C)(C)C)S(C)(=O)=O [Example 275] | > 7.00 | 
15 | CC1(NC(=O)N[C@H](C(=O)N2C[C@H]3[C@@H]([C@H]2C(=O)N[C@@H](CC(F)F)C(=O)NCCC(=O)OC(C)(C)C)C3(C)C)C(C)(C)C)CCCCC1 [Example 155] |  | pKi (Ki Rating, Table 2): < 6.30
16 | CN(C[C@@H](NC(=O)N[C@H](C(=O)N1C[C@H]2[C@@H]([C@H]1C(=O)N[C@@H](CC(F)F)C(=O)N1Cc3ccccc3C1)C2(C)C)C(C)(C)C)C(C)(C)C)S(C)(=O)=O [Example 301] | < 6.30 | 

Row | SMILES | pKi (Ki, Table 3, rating) | further results
17 | CN(C[C@@H](NC(=O)N[C@H](C(=O)N1C[C@H]2[C@@H]([C@H]1C(=O)N[C@@H](CC(F)F)C(=O)NCc1cccs1)C2(C)C)C(C)(C)C)C(C)(C)C)S(C)(=O)=O [Example 212] | < 6.30 | 
18 | CN(C[C@@H](NC(=O)N[C@H](C(=O)N1C[C@H]2[C@@H]([C@H]1C(=O)N[C@@H](CC(F)F)C(=O)NCCc1c[nH]c3ccccc13)C2(C)C)C(C)(C)C)C(C)(C)C)S(C)(=O)=O [Example 252] | > 7.00 | 
19 | Cc1ccccc1CCNC(=O)[C@H](CC(F)F)NC(=O)[C@@H]1[C@@H]2[C@H](CN1C(=O)[C@@H](NC(=O)N[C@H](CN(C)S(C)(=O)=O)C(C)(C)C)C(C)(C)C)C2(C)C [Example 259] | > 7.00 | 
20 | CN(C[C@@H](NC(=O)N[C@H](C(=O)N1C[C@H]2[C@@H]([C@H]1C(=O)N[C@@H](CC(F)F)C(=O)NC1CCCC1)C2(C)C)C(C)(C)C)C(C)(C)C)S(C)(=O)=O [Example 207] | < 6.30 | 
21 | CN(C[C@@H](NC(=O)N[C@H](C(=O)N1C[C@H]2[C@@H]([C@H]1C(=O)N[C@@H](CC(F)F)C(=O)NCCc1c(F)cccc1F)C2(C)C)C(C)(C)C)C(C)(C)C)S(C)(=O)=O [Example 306] | > 7.00 | 
22 | Cc1cccc(CCNC(=O)[C@H](CC(F)F)NC(=O)[C@@H]2[C@@H]3[C@H](CN2C(=O)[C@@H](NC(=O)N[C@H](CN(C)S(C)(=O)=O)C(C)(C)C)C(C)(C)C)C3(C)C)c1 [Example 260] | > 7.00 | 
23 | CC1(C)C[C@H]2[C@H](CN(C(=O)[C@@H](NC(=O)OCc3ccccc3)C3CCCCC3)[C@@H]2C(=O)N[C@@H](CC(F)F)C(=O)NCCc2ccccc2)O1 [Example 158] |  | pKi (Ki Rating, Table 2): < 6.30
24 | COC(=O)c1ccc(CCNC(=O)[C@H](CC(F)F)NC(=O)[C@@H]2[C@@H]3[C@H](CN2C(=O)[C@@H](NC(=O)N[C@H](C(=O)OC(C)(C)C)C(C)C)C(C)(C)C)C3(C)C)cc1 [Example 137] |  | pKi (read-out: Ki Rating, Table 2): 6.30 to 7.00
25 | CC(C)[C@@H](CO)NC(=O)[C@H](CC(F)F)NC(=O)[C@@H]1[C@@H]2[C@H](CN1C(=O)[C@@H](NC(=O)N[C@H](CN(C)S(C)(=O)=O)C(C)(C)C)C(C)(C)C)C2(C)C [Example 232] | < 6.30 | 
26 | COC(=O)c1ccc(CCNC(=O)[C@H](CC(F)F)NC(=O)[C@@H]2[C@H]3CC(C)(C)O[C@H]3CN2C(=O)[C@@H](NC(=O)N[C@H](C(=O)OC(C)(C)C)C(C)C)C2CCCCC2)cc1 [Example 154] |  | pKi (Ki Rating, Table 2): < 6.30
27 | COC(=O)c1ccc(CCNC(=O)[C@H](CC(F)F)NC(=O)[C@@H]2[C@@H]3[C@H](CN2C(=O)[C@@H](NC(=O)NC2(CS(C)(=O)=O)CCCCC2)C(C)(C)C)C3(C)C)cc1 [Example 110] |  | pKi (Ki, Table 1): 7.40
28 | CC(C)(C)OC(=O)CCNC(=O)[C@H](CC(F)F)NC(=O)[C@@H]1[C@@H]2[C@H](CN1C(=O)[C@@H](NC(=O)OC(C)(C)C)C(C)(C)C)C2(C)C [Example 162] |  | pKi (Ki Rating, Table 2): < 6.30
29 | COc1ccc(Br)cc1CCNC(=O)[C@H](CC(F)F)NC(=O)[C@@H]1[C@@H]2[C@H](CN1C(=O)[C@@H](NC(=O)N[C@H](CN(C)S(C)(=O)=O)C(C)(C)C)C(C)(C)C)C2(C)C [Example 300] | > 7.00 | 
30 | CC(CNC(=O)[C@H](CC(F)F)NC(=O)[C@@H]1[C@@H]2[C@H](CN1C(=O)[C@@H](NC(=O)N[C@H](CN(C)S(C)(=O)=O)C(C)(C)C)C(C)(C)C)C2(C)C)c1ccccc1 (some centres unmarked) [Example 219] | > 7.00 | 
31 | CN(C[C@@H](NC(=O)N[C@H](C(=O)N1C[C@H]2[C@@H]([C@H]1C(=O)N[C@@H](CC(F)F)C(=O)NCCc1ccc(S(N)(=O)=O)cc1)C2(C)C)C(C)(C)C)C(C)(C)C)S(C)(=O)=O [Example 201] | > 7.00 | 
32 | CC(C)[C@H](NC(=O)N[C@H](C(=O)N1C[C@H]2[C@@H]([C@H]1C(=O)N[C@@H](CC(F)F)C(=O)NCCc1ccc(C(=O)O)cc1)C2(C)C)C(C)(C)C)C(=O)O [Example 113] |  | pKi (Ki, Table 1): 7.05

Reference: patent US7449447B2, “Peptidomimetic NS3-serine protease inhibitors of hepatitis C virus” (priority 2003, dated 2008)
